# Columns and labels:
# [1] = Geller-Seifter procedure (anxiolytic conflict test in rats); assay type: in vivo; settings: Rattus norvegicus, po, 1 h, 60 min before testing, read-out: increase in responding in the `conflict` session (percentage increase in square root of total lever presses in FR5); for change in vivo at 20 mg/kg: 20 mg/kg p.o.
# Description: Potential anxiolytic properties have been evaluated using the Geller-Seifter procedure based on that originally described by Geller and Seifter (1960) Psychopharmacologia, 1, 482-492.
# Rats are trained on a variable interval 30 sec schedule (VI30) to press a lever in order to obtain food reward. The 3 min sessions of the VI30 schedule alternate with 3 min of a schedule (FR5) in which every 5th lever press is followed by a presentation of a food pellet paired with a 0.2 sec mild footshock. The amplitude of the shock is adjusted for each rat to give equivalent response rates. The total study consists of VI and FR components and lasts 30 mins. Rats typically respond with high rates of lever pressing under the VI30 schedule and low response rats under the FR5 `conflict` session. Anxiolytic drugs increase the suppressed response rates of rats in `conflict` sessions.
# The compound is administered intraperitoneally or orally to groups of 6-16 rats 30 min (intraperitoneal route) or 60 min (oral route) before testing.
# The results are expressed as the percentage increase in square root of the total number of lever presses in the FR5 `conflict` sessions. Square root transformation is necessary to normalise the data for statistical analysis using parametric methods. A change in the square root of the VI can indicate non-specific drug effects i.e. stimulation or sedation.
# [2] = target: site on or near the Cl^- channel portion of the GABAA /BDZ/Cl^- channel complex; test: [^35 S]-TBPS binding to rat cerebral cortex membranes in vitro; settings: 2 nM [^35 S]-TBPS, pH 7.1, 25° C.
# Description: [^35 S]-TBPS binding to rat cerebral cortex membranes in vitro
# [^35 S]-TBPS labels a site on or near the Cl^- channel portion of the GABAA /BDZ/Cl^- channel complex. Literature studies have shown that [^35 S]-TBPS binding is directly related to the permeability of the Cl^- channel (e.g. Concas et al, 1988).
# Modulation of [^35 S]-TBPS binding is measured by a method similar to that of Gee et al (1986).
# Pooled rat cerebral cortices were homogenised in 20 volumes of 0.32M sucrose and centrifuged at 1000 g for 20 minutes (4° C.). The supernatant was removed and recentrifuged at 50,000 g (4° C., 20 mins). The P2 pellet was then suspended in 20 volumes of Tris citrate buffer (pH 7.1) and centrifuged at 50,000 g (4° C., 20 mins). This washing step was repeated three times and the pellet finally resuspended in 20 volumes of buffer and stored at -70° C. prior to use.
# […] Non-specific binding was measured in the presence of 10^-4 M picrotoxin. Varying concentrations of test drugs 10^-7, 10^-6, 10^-5 and 10^-4 M final concentration)were added in a volume of 50 μl. The total assay volume was 500 μl. Incubation was stopped by rapid filtration using a Skatron cell harvester and radioactivity measured by liquid scintillation spectrometry. IC50 's were calculated as the concentration of test drug to inhibit 50% of specific binding. Concas A. et al, (1988) J. Neurochem. 51(6), 1868-1876. Gee K. W. et al, (1986) Mol. Pharmacol. 30, 218-225.
Compound,change in vivo at 20 mg/kg [1],IC50 ([2]; done in the presence of GABA),IC50 ([2]; done in the absence of GABA),change in vivo at 100 mg/kg ([1]; 100 mg/kg p.o.)
"CC1CC(=O)c2c(nc3c(c2N)c2ccccc2n3C)C1 (racemic) [Example E10, (±) 11-Amino-3,6-dimethyl-1,2,3,4-tetrahydro-6H-quinindolin-1-one]",17%,–,–,–
"CC1CCc2nc3c(c(N)c2C1=O)c1ccccc1n3C (racemic) [Example E11, (±) 11-Amino-2,6-dimethyl-1,2,3,4-tetrahydro-6H-quinindolin-1-one]",52%,1.2 µM,–,–
"CCC1CCc2nc3c(c(N)c2C1=O)c1ccccc1n3C (racemic) [Example E12, (±) 11-Amino-2-ethyl-6-methyl-1,2,3,4-tetrahydro-6H-quinindolin-1-one]",33%,1.4 µM,–,–
"C#CCC1CCc2nc3c(c(N)c2C1=O)c1ccccc1n3C (racemic) [Example E14, (±) 11-Amino-6-methyl-2-(2-propynyl)-1,2,3,4-tetrahydro-6H-quinindolin-1-one]",–,1 µM,–,–
"CC1CC(C)c2nc3c(c(N)c2C1=O)c1ccccc1n3C (racemic) [Example E15, (±) 11-Amino-1,2,3,4-tetrahydro-2,4,6-trimethyl-6H-quinindolin-1-one]",–,3.8 µM,–,–
"Nc1c2c(nc3[nH]c4ccccc4c13)CCCC2=O [Example E1, 11-Amino-1,2,3,4-tetrahydro-6H-quinindolin-1-one]",16%,–,–,–
"Cn1c2ccccc2c2c(N)c3c(nc21)CCCC3=O [Example E4, 11-Amino-6-methyl-1,2,3,4-tetrahydro-6H-quinindolin-1-one]",29%,–,–,–
"CCn1c2ccccc2c2c(N)c3c(nc21)CCCC3=O [Example E5, 11-Amino-6-ethyl-1,2,3,4-tetrahydro-6H-quinindolin-1-one]",29%,–,7.5 µM,–
"CCCn1c2ccccc2c2c(N)c3c(nc21)CCCC3=O [Example E6, 11-Amino-6-n-propyl-1,2,3,4-tetrahydro-6H-quinindolin-1-one]",17%,–,3.8 µM,–
"C=CCn1c2ccccc2c2c(N)c3c(nc21)CCCC3=O [Example E7, 11-Amino-6-(2-propenyl)-1,2,3,4-tetrahydro-6H-quinindolin-1-one]",16%,1.9 µM,–,–
"Cn1c2ccccc2c2c(N)c3c(nc21)CC(C)(C)CC3=O [Example E8, 11-Amino-1,2,3,4-tetrahydro-3,3,6-trimethyl-6H-quinindolin-1-one]",–,–,4.4 µM,–
"Cn1c2ccccc2c2c(N)c3c(nc21)CCC(C)(C)C3=O [Example E13, 11-Amino-1,2,3,4-tetrahydro-2,2,6-trimethyl-6H-quinindolin-1-one]",21%,1.7 µM,–,–
"Cn1c2ccccc2c2c(N)c3c(nc21)CCCCC3=O [Example E16, 12-Amino-7-methyl-cyclohepta[5,6]pyrido[2,3-b]indol-1-one]",11%,3.3 µM,–,–
"Cn1c2ccccc2c2c(N)c3c(nc21)CCC3=O [Example E17, 10-Amino-5-methyl-cyclopenta[5,6]pyrido[2,3-b]indol-1-one]",–,–,–,37%
